The values that follow come from PubChem BioAssay (NCI).

“And” between values parts separate entries of the source, which are not always exact repeats. Equal entries are not always repeated.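 Test compounds were applied to cells in 96-well plates for 48 hours at 5 doses. The concentration for full growth arrest is given as TGI.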

For the first assay, the system named is OVCAR-5 ovarian. The assay can be described thus: inhibition of tumour cell growth, NCI panel, 48 h.
Turning to `CC[C@H]1CN2CCc3cc(OC)c(OC)cc3[C@@H]2C[C@@H]1C[C@H]1NCCc2cc(OC)c(OC)cc21`, the TGI was 0.2 µM and 0.551 µM.
With `O=C1C=CC(=O)N1Nc1ccc([N+](=O)[O-])cc1[N+](=O)[O-]`, the TGI was more than 100 µM.
For the molecule `O=C(NC12CC3CC(CC(C3)C1)C2)C(=O)c1c[nH]c2ccc(Cl)cc12`, the TGI is more than 100 µM.

Another assay has as its system HCT-15 colon. The assay can be described thus: inhibition of tumour cell growth, NCI panel, 48 h.
Consider `CC(C(=O)n1nnc2ccccc21)N(c1ccccc1)c1ccccc1` (configuration not stated), for which the TGI is more than 100 µM.
With `CC[C@H]1CN2CCc3cc(OC)c(OC)cc3[C@@H]2C[C@@H]1C[C@H]1NCCc2cc(OC)c(OC)cc21`, the TGI is 0.76 µM and 1.27 µM.
Regarding `O=C1C=CC(=O)N1Nc1ccc([N+](=O)[O-])cc1[N+](=O)[O-]`, the TGI is more than 100 µM.
`O=C(NC12CC3CC(CC(C3)C1)C2)C(=O)c1c[nH]c2ccc(Cl)cc12`: the TGI is more than 100 µM.

Another assay deals with SK-MEL-28 melanoma. Nature of the assay: inhibition of tumour cell growth, NCI panel, 48 h.
On to `CC(C(=O)n1nnc2ccccc21)N(c1ccccc1)c1ccccc1` (configuration not stated), for which the TGI was more than 100 µM.
`CC[C@H]1CN2CCc3cc(OC)c(OC)cc3[C@@H]2C[C@@H]1C[C@H]1NCCc2cc(OC)c(OC)cc21`: the TGI is 0.176 µM and 0.109 µM.
The same measure, in the same setting: the result for `O=C1C=CC(=O)N1Nc1ccc([N+](=O)[O-])cc1[N+](=O)[O-]` reads more than 59.2 µM; that for `O=C(NC12CC3CC(CC(C3)C1)C2)C(=O)c1c[nH]c2ccc(Cl)cc12`, more than 100 µM.

The test system of a further assay is SK-OV-3 ovarian. The assay can be described thus: inhibition of tumour cell growth, NCI panel, 48 h.
In the case of `CC(C(=O)n1nnc2ccccc21)N(c1ccccc1)c1ccccc1` (configuration not stated), the TGI is more than 100 µM.
Take `CC[C@H]1CN2CCc3cc(OC)c(OC)cc3[C@@H]2C[C@@H]1C[C@H]1NCCc2cc(OC)c(OC)cc21`: the TGI was 0.223 µM and 0.991 µM.
For the molecule `O=C1C=CC(=O)N1Nc1ccc([N+](=O)[O-])cc1[N+](=O)[O-]`, the TGI was more than 100 µM.
On the same count and under the same terms, for `O=C(NC12CC3CC(CC(C3)C1)C2)C(=O)c1c[nH]c2ccc(Cl)cc12` the value was more than 100 µM.

A further assay has as its system 786-0 renal. Nature of the assay: inhibition of tumour cell growth, NCI panel, 48 h.
`CC(C(=O)n1nnc2ccccc21)N(c1ccccc1)c1ccccc1` (configuration not stated) displayed a TGI of more than 100 µM.
For the molecule `CC[C@H]1CN2CCc3cc(OC)c(OC)cc3[C@@H]2C[C@@H]1C[C@H]1NCCc2cc(OC)c(OC)cc21`, the TGI is 0.0621 µM and 0.248 µM.
Still for that read-out and setting: for `O=C1C=CC(=O)N1Nc1ccc([N+](=O)[O-])cc1[N+](=O)[O-]` the value was more than 100 µM; for `O=C(NC12CC3CC(CC(C3)C1)C2)C(=O)c1c[nH]c2ccc(Cl)cc12`, 34.6 µM.

A further assay relates to XF 498 CNS. Nature of the assay: inhibition of tumour cell growth, NCI panel, 48 h.
`O=C(NC12CC3CC(CC(C3)C1)C2)C(=O)c1c[nH]c2ccc(Cl)cc12` had a TGI of 43 µM.

The next assay concerns HCC-2998 colon. The assay can be described thus: inhibition of tumour cell growth, NCI panel, 48 h.
The molecule `CC(C(=O)n1nnc2ccccc21)N(c1ccccc1)c1ccccc1` (configuration not stated) yielded a TGI of more than 100 µM.
In the case of `CC[C@H]1CN2CCc3cc(OC)c(OC)cc3[C@@H]2C[C@@H]1C[C@H]1NCCc2cc(OC)c(OC)cc21`, the TGI was 0.0943 µM and 0.0555 µM.
With `O=C1C=CC(=O)N1Nc1ccc([N+](=O)[O-])cc1[N+](=O)[O-]`, the TGI is more than 100 µM.
On the same count and under the same terms, for `O=C(NC12CC3CC(CC(C3)C1)C2)C(=O)c1c[nH]c2ccc(Cl)cc12` the value was more than 100 µM.

In the next assay the test system is ACHN renal. Nature of the assay: inhibition of tumour cell growth, NCI panel, 48 h.
The molecule `CC(C(=O)n1nnc2ccccc21)N(c1ccccc1)c1ccccc1` (configuration not stated) showed a TGI of more than 100 µM.
With `CC[C@H]1CN2CCc3cc(OC)c(OC)cc3[C@@H]2C[C@@H]1C[C@H]1NCCc2cc(OC)c(OC)cc21`, the TGI is 0.0974 µM and 0.428 µM.
With `O=C1C=CC(=O)N1Nc1ccc([N+](=O)[O-])cc1[N+](=O)[O-]`, the TGI is more than 100 µM.
The same measure, in the same setting: the result for `O=C(NC12CC3CC(CC(C3)C1)C2)C(=O)c1c[nH]c2ccc(Cl)cc12` reads more than 100 µM.

A further assay deals with SN12C renal. The assay can be described thus: inhibition of tumour cell growth, NCI panel, 48 h.
Molecule `CC(C(=O)n1nnc2ccccc21)N(c1ccccc1)c1ccccc1` (configuration not stated) returned a TGI of more than 100 µM.
The same measure, in the same setting: for `CC[C@H]1CN2CCc3cc(OC)c(OC)cc3[C@@H]2C[C@@H]1C[C@H]1NCCc2cc(OC)c(OC)cc21` the value was 0.295 µM and 0.271 µM; for `O=C1C=CC(=O)N1Nc1ccc([N+](=O)[O-])cc1[N+](=O)[O-]`, more than 100 µM.
In the case of `O=C(NC12CC3CC(CC(C3)C1)C2)C(=O)c1c[nH]c2ccc(Cl)cc12`, the TGI was more than 100 µM.

Another assay relates to U251 CNS. The assay can be described thus: inhibition of tumour cell growth, NCI panel, 48 h.
Regarding `CC(C(=O)n1nnc2ccccc21)N(c1ccccc1)c1ccccc1` (configuration not stated), the TGI is more than 100 µM.
As for `O=C1C=CC(=O)N1Nc1ccc([N+](=O)[O-])cc1[N+](=O)[O-]`, the TGI was more than 100 µM.
`O=C(NC12CC3CC(CC(C3)C1)C2)C(=O)c1c[nH]c2ccc(Cl)cc12` showed a TGI of more than 100 µM.

Another assay relates to OVCAR-4 ovarian. The assay can be described thus: inhibition of tumour cell growth, NCI panel, 48 h.
`CC[C@H]1CN2CCc3cc(OC)c(OC)cc3[C@@H]2C[C@@H]1C[C@H]1NCCc2cc(OC)c(OC)cc21`: the TGI is 0.0541 µM and 0.0117 µM.
The molecule `O=C1C=CC(=O)N1Nc1ccc([N+](=O)[O-])cc1[N+](=O)[O-]` gave a TGI of more than 79.9 µM.
Same read-out and setting: the result for `O=C(NC12CC3CC(CC(C3)C1)C2)C(=O)c1c[nH]c2ccc(Cl)cc12` reads 56 µM.

The next assay concerns KM20L2 colon. The assay can be described thus: inhibition of tumour cell growth, NCI panel, 48 h.
As to `CC(C(=O)n1nnc2ccccc21)N(c1ccccc1)c1ccccc1` (configuration not stated), the TGI was more than 100 µM.
`CC[C@H]1CN2CCc3cc(OC)c(OC)cc3[C@@H]2C[C@@H]1C[C@H]1NCCc2cc(OC)c(OC)cc21`: the TGI is 0.488 µM and 0.312 µM.
In turn, `O=C1C=CC(=O)N1Nc1ccc([N+](=O)[O-])cc1[N+](=O)[O-]` returned a TGI of more than 100 µM.
On to `O=C(NC12CC3CC(CC(C3)C1)C2)C(=O)c1c[nH]c2ccc(Cl)cc12`, for which the TGI is more than 100 µM.

Another assay concerns OVCAR-8 ovarian. The assay can be described thus: inhibition of tumour cell growth, NCI panel, 48 h.
For `CC(C(=O)n1nnc2ccccc21)N(c1ccccc1)c1ccccc1` (configuration not stated), the TGI is more than 100 µM.
On to `CC[C@H]1CN2CCc3cc(OC)c(OC)cc3[C@@H]2C[C@@H]1C[C@H]1NCCc2cc(OC)c(OC)cc21`, for which the TGI is 0.532 µM and 1.09 µM.
The molecule `O=C1C=CC(=O)N1Nc1ccc([N+](=O)[O-])cc1[N+](=O)[O-]` displayed a TGI of more than 100 µM.

Another assay deals with RXF 393 renal. Nature of the assay: inhibition of tumour cell growth, NCI panel, 48 h.
`CC(C(=O)n1nnc2ccccc21)N(c1ccccc1)c1ccccc1` (configuration not stated) came in with a TGI of more than 100 µM.
`CC[C@H]1CN2CCc3cc(OC)c(OC)cc3[C@@H]2C[C@@H]1C[C@H]1NCCc2cc(OC)c(OC)cc21` came in with a TGI of 0.0593 µM.

For the next assay, the system named is CAKI-1 renal. Nature of the assay: inhibition of tumour cell growth, NCI panel, 48 h.
`CC(C(=O)n1nnc2ccccc21)N(c1ccccc1)c1ccccc1` (configuration not stated) returned a TGI of more than 100 µM.
For `CC[C@H]1CN2CCc3cc(OC)c(OC)cc3[C@@H]2C[C@@H]1C[C@H]1NCCc2cc(OC)c(OC)cc21`, the TGI is 0.111 µM and 0.333 µM.
In the case of `O=C1C=CC(=O)N1Nc1ccc([N+](=O)[O-])cc1[N+](=O)[O-]`, the TGI is more than 71 µM.

The subject of the next assay is SW-620 colon. Nature of the assay: inhibition of tumour cell growth, NCI panel, 48 h.
As for `CC(C(=O)n1nnc2ccccc21)N(c1ccccc1)c1ccccc1` (configuration not stated), the TGI was more than 100 µM.
The same measure, in the same setting: the result for `O=C1C=CC(=O)N1Nc1ccc([N+](=O)[O-])cc1[N+](=O)[O-]` reads more than 100 µM.
